# Source: patent US12139488B2, “Pyrido[3,2-d]pyrimidine compounds uses thereof for treating a proliferative disease” (Universite de Montreal, priority 2021, dated 2024)
# pIC50: −log10 of the molar value. Like-named read-outs stand apart in the source and are kept apart here.
# Columns and labels:
# [1] = tested on: pERK in HCT-116 cells (KRAS G13D); assay: Phospho-ERK inhibition (AlphaLISA SureFire Ultra p-ERK 1/2), HCT116; type: cell-based, human; conditions: for HCT116 pERK % Ymin (lowest value of the IC50 curve): Ymin above −20% = minimal or no paradoxical activation
# Procedure, shortened: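 p-ERK1/2 (Thr202/Tyr204) in lysates measured by AlphaLISA after 1 h compound exposure of overnight-plated cells (RPMI-1640, 5% FBS, 0.5% DMSO, ten concentrations, usually from 10 μM). Background from a trametinib control subtracted, inhibition normalised to vehicle, and IC50 fitted with a variable-slope four-parameter model.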
# [2] = target: BRAF (Homo sapiens (Human), UniProt P15056); assay: BRAF kinase activity assay (ADP-Glo); type: biochemical; conditions: for pIC50: first kinase column (c6), * symbols, read-out: Kinase IC50
# Procedure: (§1) Compound preparation: solid samples of each substances in 1 dram vials were suspended in DMSO (Fisher Scientific) at a stock concentration of 20 mM. Stocks were kept at −20° C. and protected from light.
# (§2) In vitro enzymatic reactions were used for evaluating compounds intrinsic activity against BRAF, CRAF and ARAF. […] Separate reactions were performed with the MEK1 substrate and ATP as a blank control.
# (§3) For compound treatment, 5 μL/well of test substance solution are placed in a 384-well proxyplate (Perkin Elmer) and mixed with 2× concentrated kinase reactions. The dilution series is selected so that nine concentrations cover a range from 100 nM to 0.01 nM. […] The final concentration of DMSO in the assay is set at 0.05%.
# (§4) BRAF and CRAF kinase reactions were carried out for a total of 2 hours at 30° C. and then stopped by ½ dilution in ADP-Glo Reagent (cat #V9102; Promega; part V912C). Reactions were then incubated for 1h at room temperature before addition of one volume of Kinase Detection Reagent (cat #V9102; Promega; part V917A). Plates were then equilibrated at room temperature for 30 minutes before detection of luminescence on a Synergy Neo2 plate reader (Biotek). The effect of each compound dilution on BRAF and CRAF kinase activity was expressed as % inhibition and calculated as follows.
# (§5) IC50 values were obtained by plotting the kinase inhibition values and fitting the dose-activity curves using a log(agonist) versus response-variable slope (four parameters) function using either GraphPadPrism (V7.0) or Dotmatics Screening Ultra platform.
# [3] = target: CRAF (Homo sapiens, UniProt P04049); assay: CRAF kinase activity assay (ADP-Glo); type: biochemical; conditions: for pIC50: § symbols, read-out: Kinase IC50
# Procedure: as §1, §2, §3, §4, §5
# [4] = HCT116 cells, class symbol before the bracket
# [5] = read-out: Kinase IC50 (nM) BRAF
# [6] = read-out: Kinase IC50 (nM) CRAF
# [7] = lowest % inhibition value of the IC50 curve, HCT116
# [8] = Homo sapiens, HCT-116, HCT116 cells, class symbol
# [9] = BRAF, read-out: Kinase IC50 (nM), BRAF biochemical kinase assay
# [10] = CRAF, read-out: Kinase IC50 (nM), CRAF biochemical kinase assay
# CRAF, sequence (P04049 whole entry, looked up): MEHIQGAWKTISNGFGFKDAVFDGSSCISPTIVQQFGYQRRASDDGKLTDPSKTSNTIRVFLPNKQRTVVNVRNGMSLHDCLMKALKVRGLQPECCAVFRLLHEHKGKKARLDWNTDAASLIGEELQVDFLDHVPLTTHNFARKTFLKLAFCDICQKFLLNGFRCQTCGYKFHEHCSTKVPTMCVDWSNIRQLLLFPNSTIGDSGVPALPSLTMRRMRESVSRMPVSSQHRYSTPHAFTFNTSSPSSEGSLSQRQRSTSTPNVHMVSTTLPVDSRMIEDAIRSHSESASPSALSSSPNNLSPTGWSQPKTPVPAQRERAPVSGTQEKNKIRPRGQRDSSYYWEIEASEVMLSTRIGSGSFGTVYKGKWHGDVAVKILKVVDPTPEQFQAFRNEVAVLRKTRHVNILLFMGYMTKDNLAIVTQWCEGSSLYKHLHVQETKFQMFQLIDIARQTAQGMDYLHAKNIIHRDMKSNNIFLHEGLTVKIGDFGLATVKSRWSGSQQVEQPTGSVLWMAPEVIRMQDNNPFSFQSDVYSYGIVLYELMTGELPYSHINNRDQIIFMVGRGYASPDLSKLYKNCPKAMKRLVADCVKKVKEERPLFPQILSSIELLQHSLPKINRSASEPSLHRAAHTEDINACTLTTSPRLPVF
# BRAF, sequence (P15056 whole entry): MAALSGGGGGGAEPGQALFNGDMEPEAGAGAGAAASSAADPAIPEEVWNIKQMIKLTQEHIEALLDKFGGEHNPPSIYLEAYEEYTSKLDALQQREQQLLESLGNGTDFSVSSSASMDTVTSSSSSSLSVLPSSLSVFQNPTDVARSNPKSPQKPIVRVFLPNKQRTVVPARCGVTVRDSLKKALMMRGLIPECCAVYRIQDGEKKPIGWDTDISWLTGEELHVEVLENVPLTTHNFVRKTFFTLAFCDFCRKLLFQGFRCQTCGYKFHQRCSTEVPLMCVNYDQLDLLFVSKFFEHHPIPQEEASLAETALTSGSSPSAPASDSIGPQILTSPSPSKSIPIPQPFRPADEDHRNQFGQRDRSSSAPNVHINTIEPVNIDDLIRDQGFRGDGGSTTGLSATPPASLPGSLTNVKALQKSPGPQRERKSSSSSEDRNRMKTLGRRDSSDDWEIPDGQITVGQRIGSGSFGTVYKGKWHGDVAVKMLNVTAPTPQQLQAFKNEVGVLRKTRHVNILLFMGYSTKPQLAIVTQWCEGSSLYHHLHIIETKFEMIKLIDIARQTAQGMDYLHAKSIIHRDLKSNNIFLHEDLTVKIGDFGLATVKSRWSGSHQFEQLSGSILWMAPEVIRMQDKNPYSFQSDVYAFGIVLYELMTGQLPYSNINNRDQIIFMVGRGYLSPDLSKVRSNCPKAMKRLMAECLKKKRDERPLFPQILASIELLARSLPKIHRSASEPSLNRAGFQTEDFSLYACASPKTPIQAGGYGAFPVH
"pIC50 [1, 4]","IC50 [2, 5]","IC50 [3, 6]",Structure (SMILES),"HCT116 pERK Ymin % ([1]; HCT116 cells, Ymin in brackets)",also measured
5.00 to 6.00,1 to 10 nM,10 to 50 nM,O=S(=O)(Nc1ccc(F)c(Nc2ncnc3ccc(-n4cc(-c5ncc[nH]5)c5ccccc54)nc23)c1F)c1cccc(Cl)c1Cl [Example 207],−11%,–
5.00 to 6.00,1 to 10 nM,> 50 nM,O=S(=O)(Nc1ccc(F)c(Nc2ncnc3ccc(-n4nc(-c5ncc[nH]5)c5ccccc54)nc23)c1F)c1cccc(Cl)c1Cl [Example 212],−13%,–
5.00 to 6.00,1 to 10 nM,> 50 nM,O=S(=O)(Nc1ccc(F)c(Nc2ncnc3ccc(-n4nc(-c5ncc[nH]5)c5ccccc54)nc23)c1F)c1ccccc1Cl [Example 213],−8%,–
5.00 to 6.00,1 to 10 nM,> 50 nM,NCC(=O)c1cn(-c2ccc3ncnc(Nc4c(F)ccc(NS(=O)(=O)c5ccccc5Cl)c4F)c3n2)c2ccccc12 [Example 223],−9%,–
> 6.30,1 to 10 nM,< 10 nM,O=S(=O)(Nc1ccc(F)c(Nc2ncnc3ccc(-n4cnc5c(-c6cccnc6)cccc54)nc23)c1F)c1ccccc1Cl [Example 243],−3.9%,–
–,1 to 10 nM,< 10 nM,Cc1c(Cl)csc1S(=O)(=O)Nc1ccc(F)c(Nc2ncnc3ccc(-n4cnc5ccccc54)nc23)c1F [Example 315],–,"pIC50 ([1]; HCT116 cells, 1 h treatment): > 6.30; HCT116 pERK Ymin % [1, 7]: −12%"
–,< 1 nM,< 10 nM,"Cc1csc(S(=O)(=O)Nc2ccc(F)c(Nc3ncnc4ccc(-n5cnc6ccccc65)nc34)c2F)c1Cl [Example 316, N-(3-((6-(1H-benzo[d]imidazol-1-yl)pyrido[3,2-d]pyrimidin-4-yl)amino)-2,4-difluorophenyl)-3-chloro-4-methylthiophene-2-sulfonamide]",–,"pIC50 ([1]; Homo sapiens, HCT-116, HCT116 cells, 1 h treatment): 6.00 to 6.30; HCT116 pERK Ymin % [1, 7]: −5%"

# Further lines, the molecule ahead of its results:
Structure (SMILES),"pIC50 [1, 4]","IC50 [2, 5]","IC50 [3, 6]","HCT116 pERK Ymin % ([1]; HCT116 cells, Ymin in brackets)",also measured
CN(C)C(=O)c1cn(-c2ccc3ncnc(Nc4c(F)ccc(NS(=O)(=O)c5ccccc5Cl)c4F)c3n2)c2ccccc12 [Ex 87],> 6.30,< 1 nM,10 to 50 nM,−4.4%,–
NC(=O)Cc1cn(-c2ccc3ncnc(Nc4c(F)ccc(NS(=O)(=O)c5ccccc5Cl)c4F)c3n2)c2ccccc12 [Ex 90],5.00 to 6.00,1 to 10 nM,< 10 nM,−1%,–
CC(=O)c1cn(-c2ccc3ncnc(Nc4c(F)ccc(NS(=O)(=O)c5ccccc5Cl)c4F)c3n2)c2ccccc12 [Ex 214],5.00 to 6.00,1 to 10 nM,> 50 nM,−12%,–
CNCc1cccc2c1ncn2-c1ccc2ncnc(Nc3c(F)ccc(NS(=O)(=O)c4ccccc4Cl)c3F)c2n1 [Ex 215],5.00 to 6.00,1 to 10 nM,10 to 50 nM,−9%,–
CN(C)Cc1cccc2c1ncn2-c1ccc2ncnc(Nc3c(F)ccc(NS(=O)(=O)c4ccccc4Cl)c3F)c2n1 [Ex 216],6.00 to 6.30,1 to 10 nM,10 to 50 nM,−8.8%,–
NCc1cccc2c1ncn2-c1ccc2ncnc(Nc3c(F)ccc(NS(=O)(=O)c4ccccc4Cl)c3F)c2n1 [Ex 217],5.00 to 6.00,< 1 nM,< 10 nM,−9%,–
O=S(=O)(Nc1ccc(F)c(Nc2ncnc3ccc(-n4cnc5c(CN6CCCC6)cccc54)nc23)c1F)c1ccccc1Cl [Ex 219],5.00 to 6.00,1 to 10 nM,10 to 50 nM,0%,–
CC(C)NCc1cccc2c1ncn2-c1ccc2ncnc(Nc3c(F)ccc(NS(=O)(=O)c4ccccc4Cl)c3F)c2n1 [Ex 222],5.00 to 6.00,1 to 10 nM,10 to 50 nM,−11%,–
O=S(=O)(Nc1ccc(F)c(Nc2ncnc3ccc(-n4cnc5c(CN6CC(O)C6)cccc54)nc23)c1F)c1ccccc1Cl [Ex 225],5.00 to 6.00,1 to 10 nM,10 to 50 nM,−8%,–
COC1CN(Cc2cccc3c2ncn3-c2ccc3ncnc(Nc4c(F)ccc(NS(=O)(=O)c5ccccc5Cl)c4F)c3n2)C1 [Ex 226],5.00 to 6.00,1 to 10 nM,> 50 nM,−9%,–
O=S(=O)(Nc1ccc(F)c(Nc2ncnc3ccc(-n4cnc5c(CN6CCC(O)CC6)cccc54)nc23)c1F)c1ccccc1Cl [Ex 229],5.00 to 6.00,< 1 nM,10 to 50 nM,−7%,–
CC(=O)Nc1cccc2c1ncn2-c1ccc2ncnc(Nc3c(F)ccc(NS(=O)(=O)c4ccccc4Cl)c3F)c2n1 [Example 85],6.00 to 6.30,1 to 10 nM,10 to 50 nM,2.9%,–
Nc1nc(-c2ccc3ncnc(Nc4c(F)ccc(NS(=O)(=O)c5ccccc5Cl)c4F)c3n2)cs1 [Example 94],5.00 to 6.00,> 10 nM,> 50 nM,−5%,–
Cc1c(Cl)cccc1S(=O)(=O)Nc1ccc(F)c(Nc2ncnc3ccc(-n4cnc5c(O)cccc54)nc23)c1F [Example 116],6.00 to 6.30,< 1 nM,< 10 nM,−18%,–
Cc1c(Cl)cccc1S(=O)(=O)Nc1ccc(F)c(Nc2ncnc3ccc(-n4nnc5c(O)cccc54)nc23)c1F [Example 117],6.00 to 6.30,1 to 10 nM,< 10 nM,−12%,–
O=C(Nc1cccc2c1ncn2-c1ccc2ncnc(Nc3c(F)ccc(NS(=O)(=O)c4ccccc4Cl)c3F)c2n1)N1CCOCC1 [Example 149],6.00 to 6.30,1 to 10 nM,10 to 50 nM,8.5%,–
O=S(=O)(Nc1ccc(F)c(Nc2ncnc3ccc(-n4nc(-c5nnc(O)o5)c5ccccc54)nc23)c1F)c1cccc(Cl)c1Cl [Example 208],5.00 to 6.00,1 to 10 nM,< 10 nM,−4%,–
CN(C)c1nnc(-c2nn(-c3ccc4ncnc(Nc5c(F)ccc(NS(=O)(=O)c6cccc(Cl)c6Cl)c5F)c4n3)c3ccccc23)o1 [Example 209],4.52 to 5.00,1 to 10 nM,10 to 50 nM,−6%,–
COc1ccc(S(=O)(=O)Nc2ccc(F)c(Nc3ncnc4ccc(-n5cnc6ccccc65)nc34)c2Cl)cc1 [Example 239],–,–,–,–,"pIC50 ([1]; HCT116 cells, Table 5): 5.00 to 6.00; HCT116 pERK Ymin % ([1]; lowest value of the curve, HCT116, Table 5): 6.7%; IC50 ([2]; Table 5, read-out: Kinase IC50 (nM) BRAF): > 10 nM; IC50 ([3]; Table 5, read-out: Kinase IC50 (nM) CRAF): > 50 nM"
Cc1scc(S(=O)(=O)Nc2ccc(F)c(Nc3ncnc4ccc(-n5cnc6ccccc65)nc34)c2F)c1C [Example 320],–,1 to 10 nM,> 50 nM,–,"pIC50 ([1]; HCT116 cells, 1 h treatment): 5.00 to 6.00; HCT116 pERK Ymin % [1, 7]: −5%"
"Cc1c(F)cccc1S(=O)(=O)Nc1ccc(F)c(Nc2ncnc3ccc(-n4cnc(/C=C/C#N)c4)nc23)c1F [Example 343, (E)-N-(3-((6-(4-(2-cyanovinyl)-1H-imidazol-1-yl)pyrido[3,2-d]pyrimidin-4-yl)amino)-2,4-difluorophenyl)-3-fluoro-2-methylbenzenesulfonamide]",–,–,–,–,"pIC50 [1, 8]: > 6.30; pIC50 [2]: 8.00 to 9.00; pIC50 [3]: 7.30 to 8.00"
"Cc1c(F)cccc1S(=O)(=O)Nc1ccc(F)c(Nc2ncnc3ccc(-n4cnc5c(CO)cccc54)nc23)c1F [Example 345, N-[2,4-difluoro-3-[[6-[4-(hydroxymethyl)benzimidazol-1-yl]pyrido[3,2-d]pyrimidin-4-yl]amino]phenyl]-3-fluoro-2-methyl-benzenesulfonamide]",–,–,–,–,"pIC50 [1, 8]: > 6.30; pIC50 [2]: 8.00 to 9.00; pIC50 [3]: > 8.00"
CC(=O)N1CCCc2nn(-c3ccc4ncnc(Nc5c(F)ccc(NS(=O)(=O)c6cccc(Cl)c6Cl)c5F)c4n3)cc21 [Example 486],–,–,–,–,"pIC50 [1, 8]: 6.00 to 6.30; pIC50 [2]: 8.00 to 9.00; pIC50 [3]: > 8.00"
O=S(=O)(Nc1ccc(F)c(Nc2ncnc3ccc(-c4cnc5n4CCCC5)nc23)c1F)c1cccc(Cl)c1Cl [Example 561],–,–,–,–,"pIC50 ([1]; HCT116 cells): > 6.30; HCT116 pERK % Ymin (lowest value of the IC50 curve) ([1]; HCT116 cells): −13%; IC50 [2, 9]: 1 to 10 nM; IC50 [3, 10]: < 10 nM"
O=S(=O)(Nc1ccc(F)c(Nc2ncnc3ccc(-n4cnc5nccnc54)nc23)c1F)c1cccc(Cl)c1Cl [Example 573],–,–,–,–,"pIC50 ([1]; HCT116 cells): 5.00 to 6.00; HCT116 pERK % Ymin (lowest value of the IC50 curve) ([1]; HCT116 cells): −1%; IC50 [2, 9]: > 10 nM; IC50 [3, 10]: > 50 nM"
